Measured values taken from ChEMBL document CHEMBL3046265, “Synthesis, evaluation of antimicrobial activity, and molecular modeling of novel 2-((4-(2H-benzo[d] [1,2,3] triazol-2-yl)piperidin-1-yl)methyl)-5-substituted phenyl-1,3,4-oxadiazoles” (2013).

Columns and labels:
Assay type in all cases: functional
Conditions in all cases: read-out: IZ
[1] = tested on: Streptococcus pyogenes; test: Antibacterial activity against Streptococcus pyogenes at 900 ug/ml after overnight incubation
[2] = tested on: Escherichia coli; test: Antibacterial activity against Escherichia coli at 600 ug/ml after overnight incubation
[3] = tested on: Fusarium oxysporum; test: Antifungal activity against Fusarium oxysporum at 1200 ug/ml after 48 hr
[4] = tested on: Exserohilum rostratum; test: Antifungal activity against Setosphaeria rostrata at 300 ug/ml after 48 hr
[5] = tested on: Exserohilum rostratum; test: Antifungal activity against Setosphaeria rostrata at 1200 ug/ml after 48 hr
[6] = tested on: Exserohilum rostratum; test: Antifungal activity against Setosphaeria rostrata at 900 ug/ml after 48 hr
[7] = tested on: Bacillus subtilis; test: Antibacterial activity against Bacillus subtilis at 600 ug/ml after overnight incubation
[8] = tested on: Proteus vulgaris; test: Antibacterial activity against Proteus vulgaris at 900 ug/ml after overnight incubation
[9] = tested on: Klebsiella aerogenes; test: Antibacterial activity against Enterobacter aerogenes at 900 ug/ml after overnight incubation
[10] = tested on: Fusarium oxysporum; test: Antifungal activity against Fusarium oxysporum at 900 ug/ml after 48 hr
[11] = tested on: Bacillus pumilus; test: Antibacterial activity against Bacillus pumilus at 900 ug/ml after overnight incubation
[12] = tested on: Fusarium oxysporum; test: Antifungal activity against Fusarium oxysporum at 600 ug/ml after 48 hr
[13] = tested on: Priestia megaterium; test: Antibacterial activity against Bacillus megaterium at 900 ug/ml after overnight incubation
[14] = tested on: Fusarium oxysporum; test: Antifungal activity against Fusarium oxysporum at 300 ug/ml after 48 hr
[15] = tested on: Enterococcus faecalis; test: Antibacterial activity against Enterococcus faecalis at 600 ug/ml after overnight incubation
[16] = tested on: Candida albicans; test: Antifungal activity against Candida albicans at 300 ug/ml after 48 hr
[17] = tested on: Colletotrichum falcatum; test: Antifungal activity against Glomerella tucumanensis at 900 ug/ml after 48 hr
[18] = tested on: Candida albicans; test: Antifungal activity against Candida albicans at 600 ug/ml after 48 hr
[19] = tested on: Colletotrichum falcatum; test: Antifungal activity against Glomerella tucumanensis at 300 ug/ml after 48 hr
[20] = tested on: Colletotrichum falcatum; test: Antifungal activity against Glomerella tucumanensis at 1200 ug/ml after 48 hr
[21] = tested on: Staphylococcus aureus; test: Antibacterial activity against Staphylococcus aureus at 900 ug/ml after overnight incubation
[22] = tested on: Bacillus pumilus; test: Antibacterial activity against Bacillus pumilus at 600 ug/ml after overnight incubation
[23] = tested on: Staphylococcus aureus; test: Antibacterial activity against Staphylococcus aureus at 600 ug/ml after overnight incubation
[24] = tested on: Escherichia coli; test: Antibacterial activity against Escherichia coli at 900 ug/ml after overnight incubation
[25] = tested on: Klebsiella pneumoniae; test: Antibacterial activity against Klebsiella pneumoniae at 900 ug/ml after overnight incubation
[26] = tested on: Proteus vulgaris; test: Antibacterial activity against Proteus vulgaris at 600 ug/ml after overnight incubation
[27] = tested on: Klebsiella pneumoniae; test: Antibacterial activity against Klebsiella pneumoniae at 600 ug/ml after overnight incubation
[28] = tested on: Streptococcus pyogenes; test: Antibacterial activity against Streptococcus pyogenes at 600 ug/ml after overnight incubation
[29] = tested on: Bacillus subtilis; test: Antibacterial activity against Bacillus subtilis at 900 ug/ml after overnight incubation
[30] = tested on: Candida albicans; test: Antifungal activity against Candida albicans at 900 ug/ml after 48 hr
[31] = tested on: Klebsiella aerogenes; test: Antibacterial activity against Enterobacter aerogenes at 600 ug/ml after overnight incubation
[32] = tested on: Colletotrichum falcatum; test: Antifungal activity against Glomerella tucumanensis at 600 ug/ml after 48 hr
[33] = tested on: Exserohilum rostratum; test: Antifungal activity against Setosphaeria rostrata at 600 ug/ml after 48 hr
[34] = tested on: Candida albicans; test: Antifungal activity against Candida albicans at 1200 ug/ml after 48 hr
[35] = tested on: Priestia megaterium; test: Antibacterial activity against Bacillus megaterium at 600 ug/ml after overnight incubation
[36] = tested on: Enterococcus faecalis; test: Antibacterial activity against Enterococcus faecalis at 900 ug/ml after overnight incubation

Structure (SMILES)	zone of inhibition at 900 µg/mL [1]	zone of inhibition at 600 µg/mL [2]	zone of inhibition at 1200 µg/mL [3]	zone of inhibition at 300 µg/mL [4]	zone of inhibition at 1200 µg/mL [5]	zone of inhibition at 900 µg/mL [6]	zone of inhibition at 600 µg/mL [7]	zone of inhibition at 900 µg/mL [8]	zone of inhibition at 900 µg/mL [9]	zone of inhibition at 900 µg/mL [10]	zone of inhibition at 900 µg/mL [11]	zone of inhibition at 600 µg/mL [12]	zone of inhibition at 900 µg/mL [13]	zone of inhibition at 300 µg/mL [14]	zone of inhibition at 600 µg/mL [15]	zone of inhibition at 300 µg/mL [16]	zone of inhibition at 900 µg/mL [17]	zone of inhibition at 600 µg/mL [18]	zone of inhibition at 300 µg/mL [19]	zone of inhibition at 1200 µg/mL [20]	further results
Fc1cccc(-c2nnc(CN3CCC(n4nc5ccccc5n4)CC3)o2)c1F	3.15 mm	3.25 mm	25.4 mm	3.81 mm	29.8 mm	15 mm	4.8 mm	8.74 mm	5.45 mm	13.2 mm	7.24 mm	7.01 mm	11.2 mm	4.21 mm	2.35 mm	3.33 mm	17.8 mm	5.25 mm	4.82 mm	33.9 mm	zone of inhibition at 900 µg/mL [21]: 7.56 mm; zone of inhibition at 600 µg/mL [22]: 3.35 mm; zone of inhibition at 600 µg/mL [23]: 4.25 mm; zone of inhibition at 900 µg/mL [24]: 7.15 mm; zone of inhibition at 900 µg/mL [25]: 13.2 mm; zone of inhibition at 600 µg/mL [26]: 4.56 mm; zone of inhibition at 600 µg/mL [27]: 6.23 mm; zone of inhibition at 600 µg/mL [28]: 1.13 mm; zone of inhibition at 900 µg/mL [29]: 9.56 mm; zone of inhibition at 900 µg/mL [30]: 9.86 mm; zone of inhibition at 600 µg/mL [31]: 2.09 mm; zone of inhibition at 600 µg/mL [32]: 9.25 mm; zone of inhibition at 600 µg/mL [33]: 7.86 mm; zone of inhibition at 1200 µg/mL [34]: 17.2 mm; zone of inhibition at 600 µg/mL [35]: 5.86 mm; zone of inhibition at 900 µg/mL [36]: 5.36 mm
Brc1cccc(-c2nnc(CN3CCC(n4nc5ccccc5n4)CC3)o2)c1	7.25 mm	3.25 mm	29.9 mm	3.98 mm	15.1 mm	7.96 mm	4.25 mm	5.03 mm	11.6 mm	15.8 mm	8.12 mm	7.86 mm	7.25 mm	3.55 mm	3.21 mm	2.5 mm	9.25 mm	4.03 mm	2.95 mm	17.8 mm	zone of inhibition at 900 µg/mL [21]: 8.25 mm; zone of inhibition at 600 µg/mL [22]: 4.25 mm; zone of inhibition at 600 µg/mL [23]: 4.46 mm; zone of inhibition at 900 µg/mL [24]: 6.45 mm; zone of inhibition at 900 µg/mL [25]: 7.62 mm; zone of inhibition at 600 µg/mL [26]: 2.25 mm; zone of inhibition at 600 µg/mL [27]: 3.25 mm; zone of inhibition at 600 µg/mL [28]: 3.85 mm; zone of inhibition at 900 µg/mL [29]: 9.25 mm; zone of inhibition at 900 µg/mL [30]: 7.86 mm; zone of inhibition at 600 µg/mL [31]: 5.85 mm; zone of inhibition at 600 µg/mL [32]: 5.01 mm; zone of inhibition at 600 µg/mL [33]: 4.01 mm; zone of inhibition at 1200 µg/mL [34]: 16.8 mm; zone of inhibition at 600 µg/mL [35]: 3.26 mm; zone of inhibition at 900 µg/mL [36]: 5.8 mm
